The results in this text go back to US20220073471A1 (JIANGSU HENGRUI MEDICINE CO., LTD., priority 2019, published 2022).

Structures are written as SMILES.

The test concerns the target T1, Nav1.8 ion channel stably expressed on HEK293 cells (Homo sapiens, UniProt Q9Y5Y9).
T1 construct: expressed in transfected cells; host or cells: HEK293
Description: Inhibitory activity on Nav1.8, manual patch clamp. The format is cell-based. The conditions noted are these: resting, clamped at -80 mV, 1 μM TTX, read-out: IC50 on inhibiting the Nav1.8 channel activity. The source says:
The purpose of the experiment is to investigate the effect of the compounds on Nav1.8 ion channel in an in vitro experiment, wherein the Nav1.8 ion channel is stably expressed on HEK293 cells. After the Nav1.8 current becomes stable, the Nav1.8 currents before and after the administration of the compound are compared so as to obtain the effect of the compound on the Nav1.8 ion channel.
Except for NaOH and KOH used for acid titration and base titration, all the compounds used for formulating the extracellular fluid and intracellular fluid were purchased from Sigma (St. Louis, Mo.). Extracellular fluid (mM): NaCl, 137; KCl, 4; CaCl2), 1.8; MgCl2, 1; HEPES, 10; glucose, 10; pH 7.4 (NaOH titration). Intracellular fluid (mM): aspartic acid, 140; MgCl2, 2; EGTA, 11; HEPES, 10; pH 7.2 (CsOH titration). All solutions of test compound and control compound contained 1 μM TTX.
The test compound was dissolved in dimethyl sulfoxide (DMSO) at a stock concentration of 9 mM. The stock solution of the test compound was dissolved in the extracellular fluid on the day of the test and formulated into the required concentration.
1) The compound was formulated into solutions with specified concentrations, the solutions were added to the pipelines respectively in order from low to high concentration, and the pipelines were marked.
2) The cell was transferred to the perfusion tank. A positive pressure was applied to the electrode. The tip of the electrode touched the cell. The three-way valve of the air extracting device was adjusted to a three-way state. A negative pressure was applied to the electrode, so that a high-resistance seal was formed between the electrode and the cell.
The negative pressure was applied continuously, thereby causing the cell membrane to rupture and forming a current path.
3) After the current for rupturing the cell membrane became stable, perfusion of different concentrations was carried out in sequence. Once the current was stable for at least one minute, perfusion of the next concentration was carried out.
4) The perfusion tank was cleaned. The perfusion tank was rinsed with the drug solutions in order from high to low concentration, and the rinse duration for each concentration of drug solution was 20 seconds. The perfusion tank was finally rinsed with the extracellular fluid for 1 minute.
The cell was clamped at −80 mV. The cell was depolarized to 10 mV with a square wave lasting 10 milliseconds to obtain the Nav1.8 current. This procedure was repeated every 5 seconds. The maximum current caused by the square wave was measured. After the current became stable, the test compound was perfused. After the response became stable, the blocking intensity was calculated.
The data was stored in the computer system for analysis. Data collection and analysis were carried out by pCLAMP 10 (Molecular Devices, Union City, Calif.), and the analysis results were reviewed by the administrator. Stable current means that the current changes within a limited range over time. The magnitude of stable current was used to calculate the effect of the compound at the concentration.
Background: Patch clamp records ionic current or voltage across a cell membrane.

T1 sequence (Q9Y5Y9 whole entry): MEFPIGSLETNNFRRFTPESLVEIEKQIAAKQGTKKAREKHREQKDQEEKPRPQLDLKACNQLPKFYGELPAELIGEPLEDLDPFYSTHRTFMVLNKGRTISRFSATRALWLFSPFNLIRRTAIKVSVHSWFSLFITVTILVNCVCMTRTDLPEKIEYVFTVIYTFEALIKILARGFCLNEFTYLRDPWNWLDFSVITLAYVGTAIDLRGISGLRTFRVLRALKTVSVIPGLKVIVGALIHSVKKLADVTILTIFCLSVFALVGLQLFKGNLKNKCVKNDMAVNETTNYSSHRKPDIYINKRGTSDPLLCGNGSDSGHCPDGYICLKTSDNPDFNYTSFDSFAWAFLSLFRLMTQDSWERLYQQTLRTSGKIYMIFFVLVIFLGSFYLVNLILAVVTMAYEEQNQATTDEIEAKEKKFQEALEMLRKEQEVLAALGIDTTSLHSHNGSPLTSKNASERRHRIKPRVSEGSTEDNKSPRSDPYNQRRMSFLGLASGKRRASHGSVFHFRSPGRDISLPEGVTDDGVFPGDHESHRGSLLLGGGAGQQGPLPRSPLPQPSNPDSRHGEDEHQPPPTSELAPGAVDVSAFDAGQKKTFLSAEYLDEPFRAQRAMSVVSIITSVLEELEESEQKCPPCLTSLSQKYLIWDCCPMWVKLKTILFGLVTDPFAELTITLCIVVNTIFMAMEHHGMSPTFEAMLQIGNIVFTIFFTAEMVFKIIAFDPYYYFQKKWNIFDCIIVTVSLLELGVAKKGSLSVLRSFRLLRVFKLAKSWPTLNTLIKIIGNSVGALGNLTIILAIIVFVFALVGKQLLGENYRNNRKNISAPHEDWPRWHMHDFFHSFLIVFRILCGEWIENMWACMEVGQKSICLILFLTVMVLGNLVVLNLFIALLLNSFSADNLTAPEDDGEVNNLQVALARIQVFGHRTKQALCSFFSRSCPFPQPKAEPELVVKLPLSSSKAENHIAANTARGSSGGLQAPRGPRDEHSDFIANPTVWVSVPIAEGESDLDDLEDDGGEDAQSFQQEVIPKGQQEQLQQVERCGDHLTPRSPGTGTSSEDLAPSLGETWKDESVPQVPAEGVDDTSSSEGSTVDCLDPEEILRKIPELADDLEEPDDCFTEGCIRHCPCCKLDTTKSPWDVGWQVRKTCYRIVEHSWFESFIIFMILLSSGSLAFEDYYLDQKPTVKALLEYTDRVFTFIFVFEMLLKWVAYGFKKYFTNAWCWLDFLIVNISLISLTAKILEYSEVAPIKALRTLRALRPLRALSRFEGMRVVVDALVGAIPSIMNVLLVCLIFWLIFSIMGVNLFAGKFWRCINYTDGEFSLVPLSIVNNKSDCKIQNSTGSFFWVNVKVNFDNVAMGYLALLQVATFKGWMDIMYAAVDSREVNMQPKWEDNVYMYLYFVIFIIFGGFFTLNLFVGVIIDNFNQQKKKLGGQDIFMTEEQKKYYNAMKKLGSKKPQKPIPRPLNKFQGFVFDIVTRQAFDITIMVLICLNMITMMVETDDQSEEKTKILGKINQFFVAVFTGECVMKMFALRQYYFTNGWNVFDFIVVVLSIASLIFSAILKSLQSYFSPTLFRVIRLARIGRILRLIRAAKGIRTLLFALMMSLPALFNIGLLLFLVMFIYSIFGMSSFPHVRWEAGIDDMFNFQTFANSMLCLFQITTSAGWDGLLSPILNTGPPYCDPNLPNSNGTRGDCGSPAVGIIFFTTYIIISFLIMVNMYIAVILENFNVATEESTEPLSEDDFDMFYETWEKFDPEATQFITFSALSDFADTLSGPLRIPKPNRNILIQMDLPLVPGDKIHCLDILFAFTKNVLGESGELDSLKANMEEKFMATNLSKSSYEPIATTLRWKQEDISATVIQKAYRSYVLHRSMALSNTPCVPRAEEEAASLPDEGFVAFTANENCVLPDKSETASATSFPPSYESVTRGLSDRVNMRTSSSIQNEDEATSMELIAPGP

As usually defined, the IC50 is the point on the concentration scale where inhibition reaches its midpoint. For the molecule `O=C(Nc1cn[nH]c(=O)c1)c1cc(Cl)c(C(F)(F)F)cc1Oc1ccc(F)cc1OC1CCC1` [Example 41, 5-Chloro-2-(2-cyclobutoxy-4-fluorophenoxy)-N-(6-oxo-1,6-dihydropyridazin-4-yl)-4-(trifluoromethyl)benzamide], the 50% inhibitory concentration (IC50) was 1.86 nM.

For the molecule `Cc1cc(F)ccc1Cc1cc(C(F)(F)F)c(Cl)cc1C(=O)Nc1cn[nH]c(=O)c1` [Example 13, 5-Chloro-2-(4-fluoro-2-methylbenzyl)-N-(6-oxo-1,6-dihydropyridazin-4-yl)-4-(trifluoromethyl)benzamide], the IC50 was 2.3 nM.

In the case of `CCOc1cc(F)ccc1Oc1cc(C(F)(F)F)c(Cl)cc1C(=O)Nc1cn[nH]c(=O)c1` [Example 32, 5-Chloro-2-(2-ethoxy-4-fluorophenoxy)-N-(6-oxo-1,6-dihydropyridazin-4-yl)-4-(trifluoromethyl)benzamide], the IC50 amounted to 0.37 nM.

In the case of `COc1cc(F)ccc1Oc1cc(Cl)c(F)cc1C(=O)Nc1cn[nH]c(=O)c1` [Example 18, 4-Chloro-5-fluoro-2-(4-fluoro-2-methoxyphenoxy)-N-(6-oxo-1,6-dihydropyridazin-4-yl)benzamide], the IC50 is 22.2 nM.

In the case of `[2H]C([2H])([2H])c1cc(F)ccc1Oc1cc(C(F)(F)F)c(Cl)cc1C(=O)Nc1cn[nH]c(=O)c1` [Example 44, 5-Chloro-2-(4-fluoro-2-(methyl-d3)phenoxy)-N-(6-oxo-1,6-dihydropyridazin-4-yl)-4-(trifluoromethyl)benzamide], the half-inhibitory concentration (IC50) amounted to 4.04 nM.

For `O=C(Nc1cn[nH]c(=O)c1)c1cc(Cl)c(C(F)(F)F)cc1Oc1ccc(OC(F)(F)F)cc1F` [Example 14, 5-Chloro-2-(2-fluoro-4-(trifluoromethoxy)phenoxy)-N-(6-oxo-1,6-dihydropyridazin-4-yl)-4-(trifluoromethyl)benzamide], the IC50 is 2.5 nM.

As for `CC(C)Oc1cc(F)ccc1Oc1cc(C(F)(F)F)c(Cl)cc1C(=O)Nc1cn[nH]c(=O)c1` [Example 42], the IC50 came out at 2.98 nM.

`Cc1cc(F)ccc1Oc1cc(Cl)c(Cl)cc1C(=O)Nc1cn[nH]c(=O)c1` [Example 3, 4,5-Dichloro-2-(4-fluoro-2-methylphenoxy)-N-(6-oxo-1,6-dihydropyridazin-4-yl)benzamide]: the IC50 is 3.3 nM.

As to `O=C(Nc1cn[nH]c(=O)c1)c1cc(Cl)c(Cl)cc1Oc1ccc(F)cc1` [Example 4, 4,5-Dichloro-2-(4-fluorophenoxy)-N-(6-oxo-1,6-dihydropyridazin-4-yl)benzamide], the half-maximal inhibitory concentration (IC50) was determined as 14.1 nM.

Consider `COc1cc(F)ccc1Oc1cc(Cl)ccc1C(=O)Nc1cn[nH]c(=O)c1` [Example 21, 4-Chloro-2-(4-fluoro-2-methoxyphenoxy)-N-(6-oxo-1,6-dihydropyridazin-4-yl)benzamide], for which the IC50 worked out at 59.4 nM.

On to `Cc1cc(F)ccc1Oc1cc(Cl)c(C(F)(F)F)cc1C(=O)Nc1cn[nH]c(=O)c1` [Example 27, 4-Chloro-2-(4-fluoro-2-methylphenoxy)-N-(6-oxo-1,6-dihydropyridazin-4-yl)-5-(trifluoromethyl)benzamide], for which the IC50 came out at 5.7 nM.

On to `Cc1cc(F)ccc1Oc1cc(Cl)ccc1C(=O)Nc1cn[nH]c(=O)c1` [Example 20, 4-Chloro-2-(4-fluoro-2-methylphenoxy)-N-(6-oxo-1,6-dihydropyridazin-4-yl)benzamide], for which the half-inhibitory concentration (IC50) came out at 58.5 nM.

`Cc1cc(F)ccc1Oc1cc(C(F)(F)F)ccc1C(=O)Nc1cn[nH]c(=O)c1` [Example 9, 2-(4-Fluoro-2-methylphenoxy)-N-(6-oxo-1,6-dihydropyridazin-4-yl)-4-(trifluoromethyl)benzamide]: the IC50 stood at 83.4 nM.

As to `COc1cc(F)ccc1Oc1cc(Cl)c(Cl)cc1C(=O)Nc1cn[nH]c(=O)c1` [Example 1, 4,5-Dichloro-2-(4-fluoro-2-methoxyphenoxy)-N-(6-oxo-1,6-dihydropyridazin-4-yl)benzamide], the IC50 was found to be 1.6 nM.

Turning to `O=C(Nc1cn[nH]c(=O)c1)c1cc(Cl)c(C(F)(F)F)cc1Oc1ccc(F)cc1Cl` [Example 45, 5-Chloro-2-(2-chloro-4-fluorophenoxy)-N-(6-oxo-1,6-dihydropyridazin-4-yl)-4-(trifluoromethyl)benzamide], the IC50 was 5.08 nM.

Regarding `Cc1ccccc1Oc1cc(C(F)(F)F)c(Cl)cc1C(=O)Nc1cn[nH]c(=O)c1` [Example 30, 5-Chloro-N-(6-oxo-1,6-dihydropyridazin-4-yl)-2-(o-tolyloxy)-4-(trifluoromethyl)benzamide], the half-maximal inhibitory concentration (IC50) was 16.2 nM.

On to `CCc1cc(F)ccc1Oc1cc(C(F)(F)F)c(Cl)cc1C(=O)Nc1cn[nH]c(=O)c1` [Example 36, 5-Chloro-2-(2-ethyl-4-fluorophenoxy)-N-(6-oxo-1,6-dihydropyridazin-4-yl)-4-(trifluoromethyl)benzamide], for which the IC50 turned out to be 1.54 nM.

As for `COc1cc(F)ccc1Oc1ccc(C(F)(F)F)cc1C(=O)Nc1cn[nH]c(=O)c1` [Example 16, 2-(4-Fluoro-2-methoxyphenoxy)-N-(6-oxo-1,6-dihydropyridazin-4-yl)-5-(trifluoromethyl)benzamide], the IC50 turned out to be 17.9 nM.

As to `O=C(Nc1cn[nH]c(=O)c1)c1cc(Cl)c(C(F)(F)F)cc1Oc1ccc(F)c2c1CCC2` [Example 39, 5-Chloro-2-((7-fluoro-2,3-dihydro-1H-inden-4-yl)oxy)-N-(6-oxo-1,6-dihydropyridazin-4-yl)-4-(trifluoromethyl)benzamide], the IC50 came out at 0.24 nM.

Regarding `Cc1cc(OC(F)(F)F)ccc1Oc1cc(C(F)(F)F)ccc1C(=O)Nc1cn[nH]c(=O)c1` [Example 6, 2-(2-Methyl-4-(trifluoromethoxy)phenoxy)-N-(6-oxo-1,6-dihydropyridazin-4-yl)-4-(trifluoromethyl)benzamide], the IC50 was determined as 24.4 nM.

For `O=C(Nc1cn[nH]c(=O)c1)c1cc(Cl)c(C(F)(F)F)cc1Oc1ccc(F)cc1OC(F)F` [Example 37, 5-Chloro-2-(2-(difluoromethoxy)-4-fluorophenoxy)-N-(6-oxo-1,6-dihydropyridazin-4-yl)-4-(trifluoromethyl)benzamide], the IC50 was determined as 2.38 nM.

On to `Cc1cc(F)ccc1Oc1ccc(Cl)cc1C(=O)Nc1cn[nH]c(=O)c1` [Example 23, 5-Chloro-2-(4-fluoro-2-methylphenoxy)-N-(6-oxo-1,6-dihydropyridazin-4-yl)benzamide], for which the IC50 was determined as 92.3 nM.

For the molecule `O=C(Nc1cn[nH]c(=O)c1)c1cc(Cl)c(C(F)(F)F)cc1Oc1ccc(F)cc1Br` [Example 43, 2-(2-Bromo-4-fluorophenoxy)-5-chloro-N-(6-oxo-1,6-dihydropyridazin-4-yl)-4-(trifluoromethyl)benzamide], the IC50 was determined as 3.36 nM.

On to `Cc1cc(F)ccc1Oc1cc(Cl)c(F)cc1C(=O)Nc1cn[nH]c(=O)c1` [Example 19, 4-Chloro-5-fluoro-2-(4-fluoro-2-methylphenoxy)-N-(6-oxo-1,6-dihydropyridazin-4-yl)benzamide], for which the IC50 is 31.7 nM.

Regarding `Cc1cc(F)ccc1Oc1cc(C(F)(F)F)cc(C(F)(F)F)c1C(=O)Nc1cn[nH]c(=O)c1` [Example 29, 2-(4-Fluoro-2-methylphenoxy)-N-(6-oxo-1,6-dihydropyridazin-4-yl)-4,6-bis(trifluoromethyl)benzamide], the IC50 turned out to be 90.4 nM.

For `COc1cc(F)ccc1Oc1ccc(OC(F)(F)F)cc1C(=O)Nc1cn[nH]c(=O)c1` [Example 22, 2-(4-Fluoro-2-methoxyphenoxy)-N-(6-oxo-1,6-dihydropyridazin-4-yl)-5-(trifluoromethoxy)benzamide], the IC50 was found to be 87.8 nM.
